Reference: ChEMBL document CHEMBL1201862, “PubChem BioAssay data set” (2004)
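A five-concentration, 48-hour dose response in 96-well plates underlies each endpoint, interpolated linearly between surrounding concentrations. GI50: concentration for 50% inhibition of growth.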 The source made the active and inactive calls. Rule as the data show it: active = GI50 up to about 1.1 µM and inactive = higher.

Legend:
Test in all cases: NCI anticancer screen, dose series, 48 h
786-0 = tested on: 786-0
A498 = tested on: A498
A549 = tested on: A549
ACHN = tested on: ACHN
BT-549 = tested on: BT-549
CAKI-1 = tested on: CAKI-1
CCRF-CEM = tested on: CCRF-CEM
COLO 205 = tested on: COLO 205
DU-145 = tested on: DU-145
EKVX = tested on: EKVX
HCC 2998 = tested on: HCC 2998
HCT-116 = tested on: HCT-116
HCT-15 = tested on: HCT-15
HL-60 = tested on: HL-60
HT-29 = tested on: HT-29
Hs-578T = tested on: Hs-578T
IGROV-1 = tested on: IGROV-1
K562 = tested on: K562
KM12 = tested on: KM12
LOX IMVI = tested on: LOX IMVI
M14 = tested on: M14
MCF7 = tested on: MCF7
MDA-MB-435 = tested on: MDA-MB-435
MDA-N = tested on: MDA-N
MOLT-4 = tested on: MOLT-4
NCI-H23 = tested on: NCI-H23
NCI-H460 = tested on: NCI-H460
NCI-H522 = tested on: NCI-H522
NCI/ADR-RES = tested on: NCI/ADR-RES
OVCAR-3 = tested on: OVCAR-3
OVCAR-4 = tested on: OVCAR-4
OVCAR-5 = tested on: OVCAR-5
OVCAR-8 = tested on: OVCAR-8
PC-3 = tested on: PC-3
RPMI-8226 = tested on: RPMI-8226
SF-268 = tested on: SF-268
SF-539 = tested on: SF-539
SK-MEL-28 = tested on: SK-MEL-28
SK-MEL-2 = tested on: SK-MEL-2
SK-MEL-5 = tested on: SK-MEL-5
SN12C = tested on: SN12C
SR = tested on: SR
SW-620 = tested on: SW-620
U-251 = tested on: U-251
UACC-257 = tested on: UACC-257
UACC-62 = tested on: UACC-62
UO-31 = tested on: UO-31
HOP-62 = tested on: HOP-62
HOP-92 = tested on: HOP-92
MDA-MB-231 = tested on: MDA-MB-231
NCI-H226 = tested on: NCI-H226
RXF 393 = tested on: RXF 393
SF-295 = tested on: SF-295
SK-OV-3 = tested on: SK-OV-3
SNB-19 = tested on: SNB-19
SNB-75 = tested on: SNB-75
T47D = tested on: T47D
TK-10 = tested on: TK-10

What does the source list for `S=C(Nc1ccc(Cl)cc1)c1ccc(CN2CCCCC2)s1`?
GI50 (786-0): 4.25 µM (inactive); GI50 (A498): 10.8 µM (inactive); GI50 (A549): 0.811 µM (active); GI50 (ACHN): 4.93 µM (inactive); GI50 (BT-549): 8.26 µM (inactive); GI50 (CAKI-1): 12.2 µM (inactive); GI50 (CCRF-CEM): 3.17 µM (inactive); GI50 (COLO 205): 2.68 µM (inactive); GI50 (DU-145): 19.8 µM (inactive); GI50 (EKVX): 12.3 µM (inactive); GI50 (HCC 2998): 7.16 µM (inactive); GI50 (HCT-116): 1.8 µM (inactive); GI50 (HCT-15): 4.72 µM; GI50 (HL-60): 1.81 µM (inactive); GI50 (HT-29): 3.5 µM (inactive); GI50 (Hs-578T): 37.9 µM (inactive); GI50 (IGROV-1): 2.86 µM (inactive); GI50 (K562): 2.09 µM (inactive); GI50 (KM12): 5.43 µM (inactive); GI50 (LOX IMVI): 2.48 µM (inactive); GI50 (M14): 4.09 µM (inactive); GI50 (MCF7): 13.9 µM (inactive); GI50 (MDA-MB-435): 4.03 µM (inactive); GI50 (MDA-N): 2.94 µM (inactive); GI50 (MOLT-4): 2.77 µM (inactive); GI50 (NCI-H23): 3.35 µM (inactive); GI50 (NCI-H460): 4.62 µM (inactive); GI50 (NCI-H522): 21.9 µM (inactive); GI50 (NCI/ADR-RES): 16.8 µM (inactive); GI50 (OVCAR-3): 31.1 µM (inactive); GI50 (OVCAR-4): 12.5 µM (inactive); GI50 (OVCAR-5): 1.56 µM (inactive); GI50 (OVCAR-8): 4.22 µM (inactive); GI50 (PC-3): 18.5 µM (inactive); GI50 (RPMI-8226): 3.02 µM (inactive); GI50 (SF-268): 36.3 µM (inactive); GI50 (SF-539): 24.9 µM (inactive); GI50 (SK-MEL-28): 4.24 µM (inactive); GI50 (SK-MEL-2): 25.1 µM (inactive); GI50 (SK-MEL-5): 3.08 µM (inactive); GI50 (SN12C): 11.9 µM (inactive); GI50 (SR): 2.9 µM (inactive); GI50 (SW-620): 4.4 µM (inactive); GI50 (U-251): 10.1 µM (inactive); GI50 (UACC-257): 10.6 µM (inactive); GI50 (UACC-62): 5.22 µM (inactive); GI50 (UO-31): 7.8 µM (inactive)

What does the source list for `CCOc1cc(NC(C)=O)ccc1C(=O)NN1C(=O)C(Oc2ccccc2)C1c1ccc(O)c(OC)c1` (stereo not drawn)?
GI50 (786-0): 43.8 µM (inactive); GI50 (A549): 56.5 µM (inactive); GI50 (ACHN): 93.5 µM (inactive); GI50 (BT-549): 28.4 µM (inactive); GI50 (CAKI-1): 54.8 µM (inactive); GI50 (CCRF-CEM): 22.5 µM (inactive); GI50 (COLO 205): 30.3 µM (inactive); GI50 (DU-145): 78 µM (inactive); GI50 (EKVX): 35.3 µM (inactive); GI50 (HCT-116): 52.4 µM (inactive); GI50 (HCT-15): 32.8 µM; GI50 (HL-60): 19.8 µM (inactive); GI50 (HOP-62): 42.7 µM (inactive); GI50 (HOP-92): 6.04 µM (inactive); GI50 (HT-29): 36.7 µM (inactive); GI50 (IGROV-1): 34 µM (inactive); GI50 (K562): 31.3 µM (inactive); GI50 (KM12): 39.1 µM (inactive); GI50 (LOX IMVI): 29.8 µM (inactive); GI50 (M14): 52.1 µM (inactive); GI50 (MCF7): 39.5 µM (inactive); GI50 (MDA-MB-231): 34 µM (inactive); GI50 (MDA-MB-435): 42.4 µM (inactive); GI50 (MDA-N): 33.6 µM (inactive); GI50 (MOLT-4): 12.9 µM (inactive); GI50 (NCI-H226): 34.2 µM (inactive); GI50 (NCI-H23): 30.8 µM (inactive); GI50 (NCI/ADR-RES): 37.4 µM (inactive); GI50 (OVCAR-3): 41.5 µM (inactive); GI50 (OVCAR-4): 31.3 µM (inactive); GI50 (OVCAR-5): > 100 µM (inactive); GI50 (OVCAR-8): 22.1 µM (inactive); GI50 (PC-3): 35.2 µM (inactive); GI50 (RPMI-8226): 25.5 µM (inactive); GI50 (RXF 393): 24.3 µM (inactive); GI50 (SF-295): 66.4 µM (inactive); GI50 (SF-539): 28.1 µM (inactive); GI50 (SK-MEL-28): 79.4 µM (inactive); GI50 (SK-MEL-2): 26.9 µM (inactive); GI50 (SK-MEL-5): 19.1 µM (inactive); GI50 (SK-OV-3): > 100 µM (inactive); GI50 (SN12C): 28 µM (inactive); GI50 (SNB-19): > 100 µM (inactive); GI50 (SNB-75): 44.6 µM (inactive); GI50 (SR): 25.8 µM (inactive); GI50 (SW-620): 77.4 µM (inactive); GI50 (T47D): 14.4 µM (inactive); GI50 (TK-10): 40.8 µM (inactive); GI50 (U-251): 48.9 µM (inactive); GI50 (UACC-257): 47 µM (inactive); GI50 (UO-31): 35 µM (inactive)
